In the assay the test system is E. coli, ATCC #51813. As to the kind of experiment: Antibacterial efficacy test, ATP Relative Light Unit (RLU) counts. The format is cell-based. The procedure: The NIST nanoparticles are formed by a chemical reduction process that utilizes citrate as reducing and capping agent.
Relative Light Unit (RLU) counts were recorded at 12 hours and 24 hours post treatment. RLU measurements were carried out using a Hygiena SystemSURE Plus V.2 SN067503 RLU meter with Hygenia AquaSnap TOTAL ATP Water Test Cat #U143 Lot #153019. Culturing media was Hardy Diagnostics Buffered Peptone Water Lot #118272. Samples were prepared with the nanoparticle treatments and then diluted with the media to provide the tested concentrations. The test organism (Microbiologics, E. coli, KwikStik, ATCC #51813, Ref #0791 K, Lot #791-1-6) was incubated in fresh Buffered Peptone Water growth media for 24 hours prior to exposure to the nanoparticle treatments.

As to `O=[N+]([O-])[O-].[Ag+]` [AgNO3 Silver Nitrate, silver nitrate], the “RLU Counts at 12 Hours Post Exposure” value (0.25 ppm (mg/L)) amounted to 80 RLU, the “RLU Counts at 12 Hours Post Exposure” value (0.5 ppm (mg/L)) is listed as 75 RLU and the “RLU Counts at 12 Hours Post Exposure” value (1.0 ppm (mg/L)) worked out at 84 RLU. For the same compound, the “RLU Counts at 24 Hours Post Exposure” value is recorded as 25 RLU (0.25 ppm (mg/L)), 46 RLU (0.5 ppm (mg/L)) and 30 RLU (1.0 ppm (mg/L)).

The values above are taken from patent US12610952B2, “Antimicrobial compositions and methods” (EVOQ NANO, INC., priority 2014, dated 2026).
